Laboratory results taken from article PMC7170360 (Drug Delivery, 2020).

Tests used:
Hep-G2 cells [1] = test: Cellular uptake test (10-HCPT in cells by HPLC-MS/MS); assay type: cell-based, human; conditions: pH 7.4, 72 h incubation, compared with HES-10-HCPT micelles and HES-10-HCPT-SS-Ly micelles
Experimental: The in vitro cytotoxicity of HES-10-HCPT-SS-Ly micelles was evaluated by MTT assay and Hep-G2 cell lines were used as model object. The Hep-G2 cells were seeded by using 96-well plates and the cell density was 6 × 10^3. The temperature of cell culture was 37 °C and the concentration of CO2 was 5%. The culture medium was removed after 24 h and the micelle solutions with different concentrations are added. The incubation time was 48 h and 72 h respectively to fully evaluate the relationship between cytotoxicity and culture time. Then, 50 μL MTT (0.25 mg/mL) was added to each well and the supernatant was removed. The precipitated formazan crystals were dissolved by DMSO solution after 4 h. The OD values were determined by using an ELIASA reader and the detection wavelength was 492 nm. In addition, cellular uptake of HES-10-HCPT-SS-Ly micelles was also assessed in Hep-G2 cell line. Similarly, the culture medium was removed and different 10-HCPT preparations were added with concentrations of 1.0 mg/mL 24 h after incubation. […] Briefly, cells were collected and lysed using a French Pressure Cell, the lysate was clarified by centrifugation, and the supernatant liquid was processed by applying liquid–liquid extraction. Then, the concentration of 10-HCPT in Hep-G2 cells was determined by HPLC–MS/MS method.

Hep-G2 cells [2] = test: MTT cytotoxicity assay; assay type: cell-based; conditions: Homo sapiens
Experimental: The in vitro cytotoxicity of HES-10-HCPT-SS-Ly micelles was evaluated by MTT assay and Hep-G2 cell lines were used as model object. The Hep-G2 cells were seeded by using 96-well plates and the cell density was 6 × 10^3. The temperature of cell culture was 37 °C and the concentration of CO2 was 5%. The culture medium was removed after 24 h and the micelle solutions with different concentrations are added. The incubation time was 48 h and 72 h respectively to fully evaluate the relationship between cytotoxicity and culture time. Then, 50 μL MTT (0.25 mg/mL) was added to each well and the supernatant was removed. The precipitated formazan crystals were dissolved by DMSO solution after 4 h. The OD values were determined by using an ELIASA reader and the detection wavelength was 492 nm. In addition, cellular uptake of HES-10-HCPT-SS-Ly micelles was also assessed in Hep-G2 cell line. Similarly, the culture medium was removed and different 10-HCPT preparations were added with concentrations of 1.0 mg/mL 24 h after incubation. The 96-well plate was incubated at room temperature on a plate shaker for 24 h, the cells were then washed three times with PBS solution. […] Then, the concentration of 10-HCPT in Hep-G2 cells was determined by HPLC–MS/MS method.

[3] = Rat pharmacokinetics after intravenous administration; assay type: in vivo, Sprague-Dawley rats; conditions: Sprague-Dawley, plasma, 1.5 mg/kg
Experimental: The pharmacokinetics of HES-10-HCPT-SS-Ly micelles and 10-HCPT injection in Sprague-Dawley rats were evaluated in this study (n = 6). Briefly, HES-10-HCPT-SS-Ly micelles and 10-HCPT injection were injected, respectively. The dose of 10-HCPT was 1.5 mg/kg in both groups. 0.2 mL blood was collected 5 min, 10 min, 15 min, 30 min, 60 min, 2 h, 4 h, 6 h, 8 h, 12 h, 24 h, 48 h, and 72 h after administration. The concentration of 10-HCPT in plasma was determined by HPLC–MS/MS method.

For `CC[C@@]1(O)C(=O)OCc2c1cc1n(c2=O)Cc2cc3cc(O)ccc3nc2-1` [free 10-HCPT, 10-Hydroxy camptothecin], the “cellular uptake by Hep G2 cells” value (Hep-G2 cells [1]) was “more easily taken up”, the IC50 (Hep-G2 cells [2]; HepG2, culture medium pH 7.4, MTT) was 5.1 µM and the IC50 (Hep-G2 cells [2]; HepG2, pH 5.5, MTT) was 4.3 µM. The half-life [3] was 10 min.
